From patent US20220031680A1, “Donecopride As Neuroprotective Agent In the Treatment of Neurodegenerative Diseases” (priority 2018, published 2022)

Columns and labels:
amyloid plaques = experiment: Number of amyloid plaques (thioflavin T) in 5×FAD mouse brain; assay type: in vivo; details: 1 mg/kg twice a week for 3 months; for Amyloid plaque number in hippocampus: compared to controls
Experimental: (§1) 5×FAD mice received chronic treatments with drugs or vehicle according to 2 different protocols. In each experiment, drugs or vehicle solution were administered i.p. twice a week (1 mg/kg). In “Protocol 1”, mice (n=6-7 mice per group) were treated with compounds for two months, from 2 to 4 months of age. In “Protocol 2”, mice (n=7) were treated with compounds for three months, from 1 month to 4 months of age. At the end of each protocol, mice were anesthetized with a mixture of 100 mg/kg ketamine and 10 mg/kg xylazine in saline solution and perfused transcardially with PBS. Brains were quickly isolated on ice, the olfactory bulbs and cerebellum removed and the two hemispheres divided. One hemisphere was frozen on dry ice and stored at −80° C. for biochemical analysis, while the other was post-fixed in 4% PFA for immunohistochemistry (IHC).
Thirty-micrometer-thick sections were cut using a vibratome (Microm HM 650V, Thermo Scientific, Saint Herblain, France) and stored in cryoprotectant medium at −20° C. For the labeling of amyloid plaques, free-floating tissue sections of frontal cortex, hippocampus and entorhinal cortex (coordinates from the bregma: frontal cortex=1.98 mm, hippocampus=−1.94 mm, entorhinal cortex=−3.08 mm) were extensively washed in PBS and then incubated in blocking solution (PBS; 3% BSA; 0.1% Triton X-100) for 1 h. Sections were stained with Hoechst dye (1:1000, Life Technologies, Saint Aubin, France) for 15 minutes to detect cell nuclei and then with freshly prepared thioflavin T solution (#T3516-5G, Sigma-Aldrich) (final concentration: 0.01 mg/ml in blocking buffer) for 15 minutes. After washing in 70% ethanol for 5 minutes, samples were mounted on poly-lysine slides with coverslips. For GFAP (glial fibrillary acidic protein) staining, free-floating brain sections were blocked as before and incubated with polyclonal rabbit anti-GFAP (1:1000, Z0334, Dako, Les Ullis, France) at 4° C. overnight. After thioflavin T staining and washing with 70% ethanol, the secondary Alexafluor 594 goat anti-rabbit antibody (1:1000, A11012, Life Technologies) was added for 2 h. PBS washes and mounting were performed as described before.
Images were acquired with an Axiolmager Z1 microscope (Carl Zeiss S.A.S., Marly le Roi, France). Analysis of thioflavin T staining was performed blindly and data are presented as the mean number of particles per mm^2 in two to three tissue sections from the same brain area/animal (Image J software). GFAP expression was quantified using Image J software and results are expressed as area fractions.
28 female 5×FAD mice (C57BL/6J genetic background) were used in this study. Mice received vehicle or compounds (1 mg/kg) i.p., twice a week for three months, from 1 to 4 months of age.
Anti-amyloid effect. Frontal cortex, hippocampus and entorhinal cortex were analyzed as representative areas of 5×FAD mouse brain (frontal, median and caudal sections) and of human brain regions that are affected early by Alzheimer's disease and are highly enriched in amyloid deposits.

Aβ42 = Aβ42 concentration in cerebrospinal fluid of 5×FAD mice; assay type: in vivo, mouse; details: 1 mg/kg twice a week for 3 months; compared to controls
Experimental: as §1
Mice were anesthetized and mounted onto a stereotaxic instrument. The neck skin was cut and subcutaneous tissue and muscles separated with the help of micro-retractors (Fine Science Tools, Heidelberg, Germany). Mice were then laid down so that the head formed an angle of about 135° with the body (Liu and Duff (2008) J. Vis. Exp. 10:960). A capillary tube (Borosilicate glass, B100-75-10, Sutter Instruments, Novato, Calif., USA) was used to punch the dura mater of the cisterna magna. CSF was collected by capillary action and transferred to 0.5 mL microtubes, immediately frozen on dry ice and stored at −80° C. until use. Once thawed, samples were heated at 60° C. for 5 min as described in the international application WO 2008/009868 and analyzed without further freezing-thawing cycles.
ELISA kits from IBL International (Hamburg, Germany) for the dosage of Aβ40 (human amyloid β (1-40) assay kit, #27713) or Aβ42 (human amyloid β (1-42) assay kit, #27719) were used according to the manufacturer's instructions. Reactions were read at 620 nm and 450 nm using an Infinite 2000 luminescence counter. The obtained values were normalized to the protein concentration of each sample, measured using a BCA protein assay (Sigma-Aldrich). […]

Compound	Amyloid plaque number in hippocampus (amyloid plaques)	reduction of the number of amyloid plaques in entorhinal cortex (amyloid plaques; compared to vehicle) [%]	reduction of the number of amyloid plaques in frontal cortex (amyloid plaques; compared to vehicle) [%]	Aβ42 concentration in cerebrospinal fluid (CSF) (Aβ42)
COc1cc(N)c(Cl)cc1C(=O)CCC1CCN(CC2CCCCC2)CC1 [Donecopride]	not significantly different	24±4	16±3	not significantly different
COc1cc(N)c(F)cc1C(=O)CCC1CCN(CC2CCCCC2)CC1 [Flucopride]	not significantly different	28±6	–	not significantly different
